Pest or weed control data for eight compounds are collected here from patent US20110136666A1, “CHEMICAL COMPOUNDS” (SYNGENTA CROP PROTECTION, INC., priority 2008, published 2011).

Type in all cases: in vivo
Assay [1] relates to Alopecurus myosuroides (ALOMY). Briefly: Pre-emergence biological efficacy, glasshouse pot test. The conditions noted are these: 312 h, after 13 days, 100=total damage, 0=no damage, read-out: Percentage damage caused to weed species ALOMY. As to the method:
(§1) Seeds of Alopecurus myosuroides (ALOMY), Setaria faberi (SETFA), Echinochloa crus-galli (ECHCG), Solanum nigrum (SOLNI), Amaranthus retroflexus (AMARE) and Ipomea hederaceae (IPOHE) were sown in standard soil in pots. After cultivation for one day under controlled conditions in a glasshouse (at 24/16° C., day/night; 14 hours light; 65% humidity), the plants were sprayed with an aqueous spray solution derived from the formulation of the technical active ingredient in acetone/water (50:50) solution containing 0.5% Tween 20 (polyoxyethylene sorbitan monolaurate, CAS RN 9005-64-5) to give a final dose of 250 or 1000 g/ha of test compound.
(§2) The test plants were then grown under controlled conditions in the glasshouse (at 24/16° C., day/night; 14 hours light; 65% humidity) and watered twice daily. After 13 days the test was evaluated (100=total damage to plant; 0=no damage to plant).

In assay [2] the test system is Amaranthus retroflexus (AMARE). The assay is described as above. Particulars: 312 h, after 13 days, 100=total damage, 0=no damage, read-out: Percentage damage caused to weed species AMARE. As to the method: as §1, §2
Assay [3] deals with Echinochloa crus-galli (ECHCG). The assay is described as above. The conditions noted are these: 312 h, after 13 days, 100=total damage, 0=no damage, read-out: Percentage damage caused to weed species ECHCG. As for the experimental part: as §1, §2
For assay [4], the system named is Ipomea hederaceae (IPOHE). The assay is described as above. Particulars: Ipomoea hederacea, 312 h, after 13 days, 100=total damage, 0=no damage, read-out: Percentage damage caused to weed species IPOHE. As for the experimental part: as §1, §2
Assay [5] deals with Setaria faberi (SETFA). Described as above. The conditions noted are these: 312 h, after 13 days, 100=total damage, 0=no damage, read-out: Percentage damage caused to weed species SETFA. As for the experimental part: as §1, §2
Assay [6] has as its system Solanum nigrum (SOLNI). Described as above. The conditions noted are these: 312 h, after 13 days, 100=total damage, 0=no damage, read-out: Percentage damage caused to weed species SOLNI. As to the method:
as §1, §2

Assay [7] deals with Alopecurus myosuroides (ALOMY). Briefly: Post-emergence biological efficacy, glasshouse pot test. The conditions noted are these: 312 h, after 13 days, 100=total damage, 0=no damage, read-out: Percentage damage caused to weed species ALOMY. As for the experimental part: as §1, with “8 days” for “one day”
(§3) The test plants were then grown on under controlled conditions in a glasshouse (at 24/16° C., day/night; 14 hours light; 65% humidity) and watered twice daily. After 13 days the test was evaluated (100=total damage to plant; 0=no damage to plant).

Assay [8] has as its system Amaranthus retroflexus (AMARE). The assay is described as above. Particulars: 312 h, after 13 days, 100=total damage, 0=no damage, read-out: Percentage damage caused to weed species AMARE. As for the experimental part:
as §1, with “8 days” for “one day”
as §3

For assay [9], the system named is Echinochloa crus-galli (ECHCG). Described as above. The conditions noted are these: 312 h, after 13 days, 100=total damage, 0=no damage, read-out: Percentage damage caused to weed species ECHCG. As for the experimental part:
as §1, with “8 days” for “one day”
as §3

For assay [10], the system named is Ipomea hederaceae (IPOHE). The description is as above. The conditions noted are these: Ipomoea hederacea, 312 h, after 13 days, 100=total damage, 0=no damage, read-out: Percentage damage caused to weed species IPONE. As to the method: as §1, with “8 days” for “one day”
as §3

Assay [11] relates to Setaria faberi (SETFA). The assay is described as above. The conditions noted are these: 312 h, after 13 days, 100=total damage, 0=no damage, read-out: Percentage damage caused to weed species SETFA. As for the experimental part:
as §1, with “8 days” for “one day”
as §3

In assay [12] the test system is Solanum nigrum (SOLNI). The assay is described as above. The conditions noted are these: 312 h, after 13 days, 100=total damage, 0=no damage, read-out: Percentage damage caused to weed species SOLNI. As to the method: as §1, with “8 days” for “one day”
as §3

With `Nc1nc(-c2ccc(Cl)s2)nc(C(=O)O)c1Cl` [Compound 1-2, 4-amino-5-chloro-2-(5-chlorothiophen-2-yl)-pyrimidine-6-carboxylic acid], the pest or weed control at 1000 g/ha in assay [1] was found to be 0%; in assay [2], 100%; in assay [3] it was 0%; in assay [4] it was 0%; in the assay with Setaria faberi (SETFA) [5] it was 0%; in the assay with Solanum nigrum (SOLNI) [6], 30%. Moreover, the pest or weed control at 1000 g/ha in assay [7] was 10%; in assay [8], 100%; in assay [9], 20%; in assay [10] it was 60%; in the assay on Setaria faberi (SETFA) [11] it was 50%; in the assay with Solanum nigrum (SOLNI) [12] it was 80%.

On to `COC(=O)c1nc(-c2cccs2)nc(N)c1Cl` [Compound 2-1, 4-Amino-5-chloro-6-methoxycarbonyl-2-thiophen-2-ylpyrimidine], for which the pest or weed control at 1000 g/ha (in [1]; in [2]; in assay [3]; in assay [4]; in the assay with Setaria faberi (SETFA) [5]; in the assay with Solanum nigrum (SOLNI) [6]) was 0% each time. Further, the pest or weed control at 1000 g/ha stood at 0% in assay [7]; 0% in [8]; 0% in assay [9]; 50% in assay [10]; 0% in the assay on Setaria faberi (SETFA) [11]; 0% in the assay on Solanum nigrum (SOLNI) [12].

`COC(=O)c1nc(-c2ccc(Cl)s2)nc(N)c1Cl` [Compound 2-2, 4-Amino-5-chloro-2-(5-chlorothiophen-2-yl)-6-methoxycarbonyl pyrimidine]: the pest or weed control at 1000 g/ha worked out at 0% in [1]; 80% in [2]; 0% in assay [3]; 20% in assay [4]; 0% in the assay with Setaria faberi (SETFA) [5]; 0% in the assay on Solanum nigrum (SOLNI) [6]. Also, the pest or weed control at 1000 g/ha turned out to be 0% in assay [7]; 100% in [8]; 0% in [9]; 70% in [10]; 0% in the assay on Setaria faberi (SETFA) [11]; 90% in the assay with Solanum nigrum (SOLNI) [12].

Consider `COC(=O)c1nc(-c2ccc(C#N)s2)nc(N)c1Cl` [Compound 2-3, 4-Amino-5-chloro-2-(5-cyanothiophen-2-yl)-6-methoxycarbonyl pyrimidine], for which the pest or weed control at 1000 g/ha (in assay [1]; in [2]; in [3]; in assay [4]; with Setaria faberi (SETFA) [5]; with Solanum nigrum (SOLNI) [6]) was 0% throughout. The pest or weed control at 1000 g/ha (in assay [7]; in assay [8]; in assay [9]; in assay [10]; in the assay with Setaria faberi (SETFA) [11]; with Solanum nigrum (SOLNI) [12]) was 0% throughout.

As for `COC(=O)c1nc(-c2ccc(OC)s2)nc(N)c1Cl` [Compound 2-7, 4-Amino-5-chloro-6-methoxycarbonyl-2-(5-methoxythiophen-2-yl)-pyrimidine], the pest or weed control at 1000 g/ha worked out at 0% in assay [1]; 90% in [2]; 60% in assay [3]; 20% in assay [4]; 20% in the assay on Setaria faberi (SETFA) [5]; 0% in the assay with Solanum nigrum (SOLNI) [6]. Further, the pest or weed control at 1000 g/ha is 0% in [7]; 100% in assay [8]; 80% in [9]; 80% in assay [10]; 70% in the assay with Setaria faberi (SETFA) [11]; 80% in the assay on Solanum nigrum (SOLNI) [12].

On to `COC(=O)c1nc(-c2ccc(C(C)=O)s2)nc(N)c1Cl` [Compound 2-9, 4-Amino-5-chloro-6-methoxycarbonyl-2-(5-methylcarbonyl-thiophen-2-yl)-pyrimidine], for which the pest or weed control at 250 g/ha (in [1]; in assay [2]; in assay [3]; in assay [4]; in the assay with Setaria faberi (SETFA) [5]; in the assay with Solanum nigrum (SOLNI) [6]) was 0% each time. The pest or weed control at 250 g/ha (in assay [7]; in assay [8]; in assay [9]; in assay [10]; with Setaria faberi (SETFA) [11]; with Solanum nigrum (SOLNI) [12]) was 0% throughout.

Consider `COC(=O)c1nc(-c2ccsc2)nc(N)c1Cl` [Compound 2-16, 4-Amino-5-chloro-6-methoxycarbonyl-2-thiophen-3-ylpyrimidine], for which the pest or weed control at 250 g/ha amounted to 10% in [1]; 90% in [2]; 0% in assay [3]; 0% in [4]; 0% with Setaria faberi (SETFA) [5]; 30% with Solanum nigrum (SOLNI) [6]. For the same compound, the pest or weed control at 250 g/ha in [7] stood at 20%; in [8] it was 0%; in [9] it was 0%; in [10], 40%; with Setaria faberi (SETFA) [11] it was 0%; with Solanum nigrum (SOLNI) [12], 0%.

Take `COC(=O)c1nc(-c2cscc2C)nc(N)c1Cl` [Compound 2-17, 4-Amino-5-chloro-6-methoxycarbonyl-2-(4-methylthiophen-3-yl)-pyrimidine]: the pest or weed control at 250 g/ha in assay [1] was found to be 0%; in [2] it was 50%; in [3], 0%; in [4] it was 0%; in the assay on Setaria faberi (SETFA) [5] it was 0%; with Solanum nigrum (SOLNI) [6], 0%. The pest or weed control at 250 g/ha (in assay [7]; in assay [8]; in assay [9]; in assay [10]; with Setaria faberi (SETFA) [11]; in the assay with Solanum nigrum (SOLNI) [12]) was 0% throughout.
